The source of these data is ChEMBL document CHEMBL2016545, “Discovery of S-777469: an orally available CB2 agonist as an antipruritic agent” (Bioorg Med Chem Lett, 2012).

Structures are written as SMILES. pIC50, pKi: −log10 of the molar value.

Series [1] concerns the target T1, Cannabinoid receptor 2 (Homo sapiens, UniProt P34972). As to the kind of experiment: Agonist activity at human CB2 receptor expressed in CHO cells assessed as inhibition of forskolin-induced cAMP release after 45 mins. Type of series: functional, cell-based.
In series [2] the target is T2, Cannabinoid receptor 1 (Homo sapiens, UniProt P21554). The experiment in a line: Displacement of [3H]-CP55940 from human recombinant CB1 receptor after 60 mins.
The target in series [3] is T1, Cannabinoid receptor 2. As to the kind of experiment: Displacement of [3H]-CP55940 from human recombinant CB2 receptor after 60 mins.
For series [4], the target named is T2, Cannabinoid receptor 1. As to the kind of experiment: Agonist activity at human CB1 receptor expressed in CHO cells assessed as inhibition of forskolin-induced cAMP release after 25 mins. Type of series: functional, cell-based.
Series [5] concerns Mus musculus. The experiment in a line: Neurotoxicity in ICR mouse assessed as psychoactivity at 0.1 to 1 mg/kg, iv. Type of series: toxicity, organism-based. Also noted: dose 0.1-1 mg/kg, route intravenous. To be noted: in vivo.
The species entered for series [6] is Mus musculus. As to the kind of experiment: animal or person. Particulars: ICR, po, 0.5 h, read-out: INH.
Series [7] has as its system Mus musculus. As to the kind of experiment: Antipruritic activity in ICR mouse assessed as inhibition of compound 48/80-induced scratching at 10 mg/kg, po measured after 30 mins. To be noted: 0.5 h. Type of series: functional.
A short description of series [8]: Clearance in beagle dog at 3 mg/kg, iv. Type of series: ADME, organism-based, Canis lupus familiaris. Also noted: dose 3 mg/kg, route intravenous. Particulars: in vivo.
A short description of series [9]: Oral bioavailability in cynomolgus monkey at 10 mg/kg. Particulars: in vivo. Type of series: ADME, organism-based, Macaca fascicularis.
Series [10] deals with Mus musculus. The experiment in a line: Antipruritic activity in ICR mouse assessed as inhibition of compound 48/80-induced scratching at 3 mg/kg, po measured after 30 mins. Particulars: 0.5 h. The class given is functional.
Series [11] is described as follows: Clearance in rat at 3 mg/kg, iv. Set-up: dose 3 mg/kg, route intravenous. Particulars: in vivo. Type of series: ADME, organism-based.
Series [12] in a line: Oral bioavailability in beagle dog at 10 mg/kg. Particulars: in vivo. Type of series: ADME, organism-based, Canis lupus familiaris.
Series [13] in a line: Half life in cynomolgus monkey at 10 mg/kg, po. To be noted: in vivo. Also noted: dose 10 mg/kg, route oral. Type of series: ADME, organism-based, Macaca fascicularis.
Series [14] is described as follows: Oral bioavailability in rat at 10 mg/kg. Type of series: ADME, organism-based. To be noted: in vivo.
Series [15] is described as follows: Volume of distribution at steady state in rat at 3 mg/kg, iv. The class given is ADME, organism-based. Also noted: dose 3 mg/kg, route intravenous. To be noted: in vivo, read-out: Vdss.
A short description of series [16]: Volume of distribution at steady state in cynomolgus monkey at 3 mg/kg, iv. Type of series: ADME, organism-based, Macaca fascicularis. Set-up: dose 3 mg/kg, route intravenous. To be noted: in vivo, read-out: Vdss.
Series [17] in a line: Half life in beagle dog at 10 mg/kg, po. The class given is ADME, organism-based, Canis lupus familiaris. Also noted: dose 10 mg/kg, route oral. Particulars: in vivo.
Series [18] in a line: Clearance in cynomolgus monkey at 3 mg/kg, iv. The class given is ADME, organism-based, Macaca fascicularis. Set-up: dose 3 mg/kg, route intravenous. Particulars: in vivo.
Series [19] has as its system Mus musculus. As to the kind of experiment: Antipruritic activity in ICR mouse assessed as inhibition of compound 48/80-induced scratching at 1 mg/kg, po measured after 30 mins. To be noted: 0.5 h. The class given is functional.
Series [20] can be described thus: Volume of distribution at steady state in beagle dog at 3 mg/kg, iv. The class given is ADME, organism-based, Canis lupus familiaris. Set-up: dose 3 mg/kg, route intravenous. To be noted: in vivo, read-out: Vdss.
Series [21] in a line: Half life in rat at 10 mg/kg, po. The class given is ADME, organism-based. Also noted: dose 10 mg/kg, route oral. To be noted: in vivo.

T1 sequence (P34972 whole entry): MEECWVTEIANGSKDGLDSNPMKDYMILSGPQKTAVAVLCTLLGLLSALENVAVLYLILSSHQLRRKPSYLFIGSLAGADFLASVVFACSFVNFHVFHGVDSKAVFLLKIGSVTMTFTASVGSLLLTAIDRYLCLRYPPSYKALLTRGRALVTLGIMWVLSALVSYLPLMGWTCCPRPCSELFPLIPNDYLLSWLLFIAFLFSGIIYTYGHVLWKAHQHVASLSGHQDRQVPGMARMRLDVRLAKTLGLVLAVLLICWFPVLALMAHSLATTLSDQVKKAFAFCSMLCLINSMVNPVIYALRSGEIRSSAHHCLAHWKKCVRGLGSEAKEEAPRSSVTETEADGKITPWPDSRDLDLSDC
T2 sequence (P21554 whole entry): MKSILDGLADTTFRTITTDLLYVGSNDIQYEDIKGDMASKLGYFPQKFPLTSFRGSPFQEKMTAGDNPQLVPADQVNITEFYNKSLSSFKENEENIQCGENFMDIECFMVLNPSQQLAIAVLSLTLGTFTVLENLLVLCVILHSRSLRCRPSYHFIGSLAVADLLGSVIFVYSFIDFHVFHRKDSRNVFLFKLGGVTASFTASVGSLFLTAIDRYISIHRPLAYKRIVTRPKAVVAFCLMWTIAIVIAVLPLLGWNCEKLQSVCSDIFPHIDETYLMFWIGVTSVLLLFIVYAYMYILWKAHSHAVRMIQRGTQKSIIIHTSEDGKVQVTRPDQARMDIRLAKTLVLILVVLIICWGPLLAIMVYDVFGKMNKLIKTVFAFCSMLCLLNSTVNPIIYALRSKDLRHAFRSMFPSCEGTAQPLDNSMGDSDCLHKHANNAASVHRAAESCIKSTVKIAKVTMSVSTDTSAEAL

Turning to `O=C(NC1(C(=O)O)CCCCCCC1)c1cc2c(n(CC3CCCCC3)c1=O)CCCCCC2`, the negative-log IC50 (pIC50) at Cannabinoid receptor 2 [1] is 9.00.
In the case of `O=C(O)CNC(=O)c1cc2c(n(CC3CCCCC3)c1=O)CCCCCC2`, the values for the pKi at Cannabinoid receptor 1 [2] and on Cannabinoid receptor 2 [3] were 5.98 and 6.75, respectively.
As for `O=C(NC1(C(=O)O)CCCC1)c1cc2c(n(CC3CCCCC3)c1=O)CCCCCC2`, the values for the pKi at Cannabinoid receptor 1 [2] and on Cannabinoid receptor 2 [3] were 6.59 and 7.25, respectively. The negative-log IC50 (pIC50) at Cannabinoid receptor 1 [4] was 6.95; at Cannabinoid receptor 2 [1] it was 7.85.
For the molecule `O=C(NC1(C(=O)O)CCCCC1)c1cc2c(n(CC3CCCCC3)c1=O)CCCCCC2`, the pKi is 6.74 on Cannabinoid receptor 1 [2] and 8.17 at Cannabinoid receptor 2 [3]. Moreover, in the series with Mus musculus [5], the Activity entry is listed as “Non-toxic”. The values for the pIC50 on Cannabinoid receptor 1 [4] and at Cannabinoid receptor 2 [1] were 7.12 and 8.15, respectively.
In the case of `CCCCn1c2c(cc(C(=O)NC3(C(=O)O)CCCCC3)c1=O)CCCCCC2`, the pKi is less than 5.30 at Cannabinoid receptor 1 [2] and 7.25 at Cannabinoid receptor 2 [3]. Further, the pIC50 is less than 5.70 at Cannabinoid receptor 1 [4] and 8.15 at Cannabinoid receptor 2 [1].
On to `O=C(NC1(C(=O)O)CCCCC1)c1cc2c(n(CC3CCCO3)c1=O)CCCCCC2` (stereo not given), for which the pKi is less than 5.30 on Cannabinoid receptor 1 [2] and 6.61 on Cannabinoid receptor 2 [3].
Regarding `CCN1CCCC1Cn1c2c(cc(C(=O)NC3(C(=O)O)CCCCC3)c1=O)CCCCCC2` (stereo not given), the negative logarithm of the Ki (pKi) on Cannabinoid receptor 2 [3] was 5.67.
Turning to `O=C(NC1(C(=O)O)CCCCC1)c1cc2c(n(Cc3ccc(F)cc3)c1=O)CCCCCC2`, the negative-log Ki (pKi) at Cannabinoid receptor 1 [2] is 6.58; on Cannabinoid receptor 2 [3] it was 7.80. Also, the negative-log IC50 (pIC50) on Cannabinoid receptor 1 [4] is 6.29; on Cannabinoid receptor 2 [1] it was 8.05.
With `N#Cc1ccc(Cn2c3c(cc(C(=O)NC4(C(=O)O)CCCCC4)c2=O)CCCCCC3)cc1`, the negative logarithm of the Ki (pKi) at Cannabinoid receptor 1 [2] was 5.40; at Cannabinoid receptor 2 [3], 6.84.
On to `CCCCn1c(CC)c(C)cc(C(=O)NC2(C(=O)O)CCCCC2)c1=O`, for which the pKi on Cannabinoid receptor 2 [3] is 6.46.
Take `CCCCn1c(CCC)c(Br)cc(C(=O)NC2(C(=O)O)CCCCC2)c1=O`: the pKi at Cannabinoid receptor 1 [2] is less than 5.30; at Cannabinoid receptor 2 [3] it was 6.42.
For `CCCc1c(CC)cc(C(=O)NC2(C(=O)O)CCCCC2)c(=O)n1Cc1ccc(F)cc1`, the results for the negative logarithm of the Ki (pKi) at Cannabinoid receptor 1 [2] and at Cannabinoid receptor 2 [3] were less than 5.30 and 6.58, respectively.
Take `COCCn1c2c(cc(C(=O)NC3(C(=O)O)CCCCC3)c1=O)CCCCCC2`: the pKi at Cannabinoid receptor 1 [2] is less than 5.30; at Cannabinoid receptor 2 [3] it was 6.53.
Take `CC(C)(C(=O)O)c1ccc(C(O)CCCN2CCC(C(O)(c3ccccc3)c3ccccc3)CC2)cc1` (stereo not given) [FEXOFENADINE]: the inhibition in vivo at 30 mg/kg in the series listed under Mus musculus [6] was found to be 39%.
For the molecule `CCc1c(C)cc(C(=O)NC2(C(=O)O)CCCCC2)c(=O)n1Cc1ccc(F)cc1` [S-777469], the negative-log Ki (pKi) at Cannabinoid receptor 1 [2] is 5.39. Also, the inhibition in vivo at 10 mg/kg in the series on Mus musculus [7] was found to be 59%. Also, the results for the clearance in series [8], in series [11] and in series [18] were 6 mL/min/kg, 11.3 mL/min/kg and 13.6 mL/min/kg, respectively. For the same molecule, the figures for the bioavailability in series [9], in series [12] and in series [14] were 9.01%, 18.7% and 37.9%, respectively. Further, the inhibition in vivo at 3 mg/kg in the series on Mus musculus [10] amounted to 48%. For the same molecule, the half-life in [13] is 7.43 h; in series [17] it was 12.8 h; in series [21], 6.2 h. Besides, the Vd in series [15] is 1.9 L/kg; in series [16] it was 0.87 L/kg; in series [20], 1.23 L/kg. Moreover, the pIC50 at Cannabinoid receptor 1 [4] is less than 5.70. The inhibition in vivo at 1 mg/kg in the series on Mus musculus [19] amounted to 46%.
